# Where “and” joins values, the source holds several entries; their conditions need not be identical. Equal values may be shown once. Inconclusive results and toxic doses are left out.
# Test system: CD2F1 mice, L1210 leukemia ip, survival T/C
# Experiment: NCI In Vivo Anticancer Drug Screen. Data for tumor model L1210 Leukemia (intraperitoneal) in CD2F1 (CDF1) mice
# Conditions: higher = longer survival
# Procedure, shortened: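 Ratio T/C, where T is the treated-group value and C the vehicle-dosed control value, from mice implanted with a transplantable tumor.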
# [1] = endpoint: mean survival time, dose: 100.0 mg/kg/injection, schedule: Q01DX009 (ip), vehicle: saline with Tween-80
# [2] = endpoint: mean survival time, dose: 100.0 mg/kg/injection, schedule: Q04DX003 (ip), vehicle: saline with Tween-80
# [3] = endpoint: mean survival time, dose: 200.0 mg/kg/injection, schedule: Q01DX009 (ip), vehicle: saline with Tween-80
# [4] = endpoint: mean survival time, dose: 200.0 mg/kg/injection, schedule: Q04DX003 (ip), vehicle: saline with Tween-80
# [5] = endpoint: mean survival time, dose: 400.0 mg/kg/injection, schedule: Q01DX009 (ip), vehicle: saline with Tween-80
# [6] = endpoint: mean survival time, dose: 400.0 mg/kg/injection, schedule: Q04DX003 (ip), vehicle: saline with Tween-80
# [7] = endpoint: mean survival time, dose: 100.0 mg/kg/injection, schedule: Q01DX001 (ip), vehicle: saline
# [8] = endpoint: mean survival time, dose: 200.0 mg/kg/injection, schedule: Q01DX001 (ip), vehicle: saline
# [9] = endpoint: mean survival time, dose: 100.0 mg/kg/injection, schedule: Q04DX003 (ip), vehicle: other
# [10] = endpoint: mean survival time, dose: 200.0 mg/kg/injection, schedule: Q04DX003 (ip), vehicle: other
# [11] = endpoint: mean survival time, dose: 12.5 mg/kg/injection, schedule: Q04DX002 (ip), vehicle: saline with Tween-80
# [12] = endpoint: mean survival time, dose: 25.0 mg/kg/injection, schedule: Q04DX002 (ip), vehicle: saline with Tween-80
# [13] = endpoint: mean survival time, dose: 50.0 mg/kg/injection, schedule: Q04DX002 (ip), vehicle: saline with Tween-80
# [14] = endpoint: mean survival time, dose: 100.0 mg/kg/injection, schedule: Q04DX002 (ip), vehicle: saline with Tween-80
compound,measurement,setting,value
O=C(Nc1cccnc1)c1ccc([N+](=O)[O-])s1,T/C,"endpoint: mean survival time, dose: 50.0 mg/kg/injection, schedule: Q01DX005 (ip), vehicle: saline + alcohol",111 % of control
same,T/C,"endpoint: mean survival time, dose: 50.0 mg/kg/injection, schedule: Q01DX005 (ip), vehicle: saline",110 % of control
same,T/C,"endpoint: mean survival time, dose: 100.0 mg/kg/injection, schedule: Q01DX005 (ip), vehicle: saline + alcohol",121 % of control
same,T/C,"endpoint: mean survival time, dose: 100.0 mg/kg/injection, schedule: Q01DX005 (ip), vehicle: saline",160 % of control
same,T/C,"endpoint: mean survival time, dose: 200.0 mg/kg/injection, schedule: Q01DX005 (ip), vehicle: saline + alcohol",107 % of control
same,T/C,"endpoint: mean survival time, dose: 200.0 mg/kg/injection, schedule: Q01DX005 (ip), vehicle: saline",122 % of control
same,T/C,"endpoint: median survival time, dose: 25.0 mg/kg/injection, schedule: Q01DX005 (ip), vehicle: saline",119 % of control
same,T/C,"endpoint: median survival time, dose: 36.0 mg/kg/injection, schedule: Q01DX005 (ip), vehicle: saline",115 % of control
same,T/C,"endpoint: median survival time, dose: 50.0 mg/kg/injection, schedule: Q01DX005 (ip), vehicle: saline",116 % of control
same,T/C,"endpoint: median survival time, dose: 60.0 mg/kg/injection, schedule: Q01DX005 (ip), vehicle: saline",121 % of control
Cc1cc[n+]([O-])c(N(C(=O)c2ccccc2)C(=O)c2ccccc2)c1,T/C,[1],98 % of control
same,T/C,[2],95 % of control
same,T/C,[3],102 % of control
same,T/C,[4],103 % of control
same,T/C,[5],107 % of control
same,T/C,[6],97 % of control
C=C1C(=O)C2=CC1CCC(=O)C1(C)CCC(OC(C)=O)C(C)(C)C1CC2O (configuration not stated),T/C,"endpoint: mean survival time, dose: 3.75 mg/kg/injection, schedule: Q01DX009 (ip), vehicle: Klucel (hydroxypropylcellulose) (HPC)",97 % of control
same,T/C,"endpoint: mean survival time, dose: 7.5 mg/kg/injection, schedule: Q01DX009 (ip), vehicle: Klucel (hydroxypropylcellulose) (HPC)",98 % of control and 100 % of control
same,T/C,"endpoint: mean survival time, dose: 15.0 mg/kg/injection, schedule: Q01DX009 (ip), vehicle: Klucel (hydroxypropylcellulose) (HPC)",95 % of control and 98 % of control
same,T/C,"endpoint: mean survival time, dose: 30.0 mg/kg/injection, schedule: Q01DX009 (ip), vehicle: Klucel (hydroxypropylcellulose) (HPC)",98 % of control and 101 % of control
same,T/C,"endpoint: mean survival time, dose: 60.0 mg/kg/injection, schedule: Q01DX009 (ip), vehicle: Klucel (hydroxypropylcellulose) (HPC)",95 % of control and 96 % of control
same,T/C,"endpoint: mean survival time, dose: 120.0 mg/kg/injection, schedule: Q01DX009 (ip), vehicle: Klucel (hydroxypropylcellulose) (HPC)",89 % of control
COc1ccc(CCNC2c3ccccc3C=Cc3ccccc32)cc1OC,T/C,"endpoint: mean survival time, dose: 50.0 mg/kg/injection, schedule: Q01DX001 (ip), vehicle: saline with Tween-80",107 % of control
same,T/C,[7],91 % of control
same,T/C,[8],100 % of control
CC(C)(C)OC(=O)NC(CCCCNC(=O)OCc1ccccc1)C(=O)Oc1ccc([N+](=O)[O-])cc1 (configuration not stated),T/C,[2],91 % of control
same,T/C,[4],86 % of control
same,T/C,[6],86 % of control
Cc1cccc(SCC(=O)O)c1,T/C,[9],96 % of control
same,T/C,[10],96 % of control
same,T/C,"endpoint: mean survival time, dose: 400.0 mg/kg/injection, schedule: Q04DX003 (ip), vehicle: other",94 % of control
O=c1[nH]n(Cc2ccccc2)c2ccccc12,T/C,"endpoint: mean survival time, dose: 25.0 mg/kg/injection, schedule: Q04DX003 (ip), vehicle: Klucel (hydroxypropylcellulose) (HPC)",101 % of control
same,T/C,"endpoint: mean survival time, dose: 50.0 mg/kg/injection, schedule: Q04DX003 (ip), vehicle: Klucel (hydroxypropylcellulose) (HPC)",106 % of control
same,T/C,"endpoint: mean survival time, dose: 100.0 mg/kg/injection, schedule: Q04DX003 (ip), vehicle: Klucel (hydroxypropylcellulose) (HPC)",106 % of control
Nc1cc2nc3ccccc3sc-2cc1=O,T/C,"endpoint: mean survival time, dose: 50.0 mg/kg/injection, schedule: Q01DX009 (ip), vehicle: saline with Tween-80",102 % of control
same,T/C,[1],102 % of control
same,T/C,[3],102 % of control
same,T/C,[5],89 % of control
COc1cc(NC(=O)Nc2ccc(S(N)(=O)=O)cc2)c(Cl)c(OC)c1,T/C,[1],95 % of control
same,T/C,[3],95 % of control
same,T/C,[5],104 % of control
C=C(C)C1(Cc2ccccc2)C(=O)NC(=O)NC1=O,T/C,"endpoint: mean survival time, dose: 5.0 mg/kg/injection, schedule: Q01DX001 (ip), vehicle: saline",100 % of control
same,T/C,"endpoint: mean survival time, dose: 10.0 mg/kg/injection, schedule: Q01DX001 (ip), vehicle: saline",97 % of control
same,T/C,"endpoint: mean survival time, dose: 20.0 mg/kg/injection, schedule: Q01DX001 (ip), vehicle: saline",100 % of control
same,T/C,"endpoint: mean survival time, dose: 40.0 mg/kg/injection, schedule: Q01DX001 (ip), vehicle: saline",102 % of control
O=C(Oc1cccc(OC(=O)c2ccccc2)c1)c1ccccc1,T/C,[1],100 % of control
same,T/C,[3],97 % of control
same,T/C,[5],95 % of control
CCCCCCCCCCCCCCCCNS(=O)(=O)c1ccc2sc(SC)nc2c1,T/C,[11],93 % of control
same,T/C,[12],93 % of control
O=S(=O)(O)c1ccc2c(N=Nc3ccccc3[As](=O)(O)O)c(O)c(S(=O)(=O)O)cc2c1,T/C,[1],96 % of control
same,T/C,[2],104 % of control
same,T/C,[3],100 % of control
same,T/C,[4],94 % of control
same,T/C,[6],98 % of control
COc1ccc2c(c1O)C1CCCCC13CCN(C)C3C2 (configuration not stated),T/C,[12],96 % of control
same,T/C,[13],96 % of control
same,T/C,"endpoint: mean survival time, dose: 100.0 mg/kg/injection, schedule: Q01DX001 (ip), vehicle: saline with Tween-80",110 % of control
same,T/C,[14],93 % of control and 97 % of control
same,T/C,"endpoint: mean survival time, dose: 200.0 mg/kg/injection, schedule: Q01DX001 (ip), vehicle: saline with Tween-80",98 % of control
same,T/C,"endpoint: mean survival time, dose: 400.0 mg/kg/injection, schedule: Q01DX001 (ip), vehicle: saline with Tween-80",100 % of control
CCCCCC(=O)N1CCCC1,T/C,[2],98 % of control
same,T/C,[4],98 % of control
S=C(Sc1ccccc1)Sc1ccccc1,T/C,[1],88 % of control
same,T/C,[2],92 % of control
same,T/C,[3],95 % of control
same,T/C,[4],103 % of control
same,T/C,[5],91 % of control
same,T/C,[6],104 % of control
CCCC(O)CNCc1ccc2c3c(cccc13)CC2 (configuration not stated),T/C,"endpoint: mean survival time, dose: 25.0 mg/kg/injection, schedule: Q01DX001 (ip), vehicle: Klucel (hydroxypropylcellulose) (HPC)",93 % of control
same,T/C,"endpoint: mean survival time, dose: 50.0 mg/kg/injection, schedule: Q01DX001 (ip), vehicle: Klucel (hydroxypropylcellulose) (HPC)",101 % of control
Cc1ccc(S(N)(=O)=O)cc1,T/C,[1],94 % of control
same,T/C,[3],97 % of control
same,T/C,[5],102 % of control
CCCN(CCC)S(=O)(=O)c1ccc(NC(=O)OC(c2ccccc2)c2ccccc2)cc1,T/C,[7],104 % of control
same,T/C,[8],95 % of control
same,T/C,"endpoint: mean survival time, dose: 400.0 mg/kg/injection, schedule: Q01DX001 (ip), vehicle: saline",93 % of control
O=C(C(F)(F)F)C(F)(F)F (tested in a mixture with another compound),T/C,"endpoint: mean survival time, dose: 25.0 mg/kg/injection, schedule: Q04DX003 (ip), vehicle: other",100 % of control
same,T/C,"endpoint: mean survival time, dose: 50.0 mg/kg/injection, schedule: Q04DX003 (ip), vehicle: other",95 % of control
same,T/C,[9],94 % of control
same,T/C,[10],92 % of control
CCCCCCCCCCCCCCOc1ccccc1Cl,T/C,[14],101 % of control
same,T/C,"endpoint: mean survival time, dose: 200.0 mg/kg/injection, schedule: Q04DX002 (ip), vehicle: saline with Tween-80",101 % of control
same,T/C,"endpoint: mean survival time, dose: 400.0 mg/kg/injection, schedule: Q04DX002 (ip), vehicle: saline with Tween-80",90 % of control
CO[C@@]12[C@@H]3N[C@@H]3CN1c1c(O)c(C)c(N=C3N=NC(=S)S3)c(O)c1[C@@H]2COC(N)=O,T/C,"endpoint: mean survival time, dose: 1.5 mg/kg/injection, schedule: Q01DX001 (ip), vehicle: distilled water + Tween-80",98 % of control
same,T/C,"endpoint: mean survival time, dose: 3.0 mg/kg/injection, schedule: Q01DX001 (ip), vehicle: distilled water + Tween-80",98 % of control
same,T/C,"endpoint: mean survival time, dose: 6.0 mg/kg/injection, schedule: Q01DX001 (ip), vehicle: distilled water + Tween-80",98 % of control
same,T/C,"endpoint: mean survival time, dose: 12.0 mg/kg/injection, schedule: Q01DX001 (ip), vehicle: distilled water + Tween-80",102 % of control
same,T/C,"endpoint: mean survival time, dose: 24.0 mg/kg/injection, schedule: Q01DX001 (ip), vehicle: distilled water + Tween-80",110 % of control
same,T/C,"endpoint: mean survival time, dose: 48.0 mg/kg/injection, schedule: Q01DX001 (ip), vehicle: saline with Tween-80",100 % of control
same,T/C,"endpoint: mean survival time, dose: 96.0 mg/kg/injection, schedule: Q01DX001 (ip), vehicle: saline with Tween-80",110 % of control
CC(=Nc1ccccc1)C1=C(O)C(Cc2ccc(F)cc2)NC1=O (configuration not stated),T/C,[11],103 % of control
same,T/C,[12],100 % of control
same,T/C,[13],100 % of control
CCCCCCCCCc1nc(N)nc(NCCCC)n1,T/C,"endpoint: mean survival time, dose: 25.0 mg/kg/injection, schedule: Q01DX009 (ip), vehicle: Klucel (hydroxypropylcellulose) (HPC)",101 % of control
same,T/C,"endpoint: mean survival time, dose: 50.0 mg/kg/injection, schedule: Q01DX009 (ip), vehicle: Klucel (hydroxypropylcellulose) (HPC)",112 % of control
same,T/C,"endpoint: mean survival time, dose: 100.0 mg/kg/injection, schedule: Q01DX009 (ip), vehicle: Klucel (hydroxypropylcellulose) (HPC)",108 % of control
CCCCCCOS(=O)OCC(Cl)COC (configuration not stated),T/C,[1],97 % of control
same,T/C,[3],94 % of control
Nc1ncnc2nc(-c3ccc(C[P+](c4ccccc4)(c4ccccc4)c4ccccc4)cc3)[nH]c12,T/C,[2],101 % of control
same,T/C,[4],95 % of control
same,T/C,[6],101 % of control

# — PubChem BioAssay AID256 (DTP/NCI, 2004)
